Measurements reported in publication PMC9115881, “Penicillin Derivatives Inhibit the SARS-CoV-2 Main Protease by Reaction with Its Nucleophilic Cysteine” (Journal of Medicinal Chemistry, 2022).
Entries after “also recorded” stand apart in the source; their conditions may differ.

Tests used:
[1] = target: T1, SARS-CoV-2 M^pro (Severe acute respiratory syndrome coronavirus 2, UniProt P0DTD1); test: Protein-observed M^pro assay (SPE-MS), covalent modification; assay type: binding; conditions: M^pro 2.0 μM, inhibitor 11 or 33 μM, 45 min
Experimental: Selected compounds were tested for reaction with M^pro using protein-observed MS to inform on their mechanism of inhibition (Figure 2). Initially, M^pro was incubated with a ∼6-fold excess of the penicillin sulfone ester for 45 min and then analyzed by MS. […] When the inhibitor concentration was increased to ∼17-fold to account for the possibility of modifying all 12 M^pro cysteine or other residues, only low levels of a second covalent M^pro modification by the inhibitors were observed (Figure 2A–C). No evidence for fragmentation of the inhibitors once bound to M^pro was accrued.
Solutions of the inhibitors (100% DMSO) were dry-dispensed across 384-well polypropylene assay plates (Greiner) (for 11 or 33 μM top concentrations) using an ECHO 550 acoustic dispenser (Labcyte). DMSO was used as a negative control. Each reaction was performed in technical duplicates. The enzyme mixture (50 μL/well), containing M^pro (2.0 μM) in buffer (20 mM HEPES, pH 7.5), was dispensed across the penicillin-containing 384-well assay plates with a multidrop dispenser (Thermo Fischer Scientific). The reaction mixture was incubated for 45 min at 20 °C under an ambient atmosphere prior to analysis by SPE-MS.
MS analyses were performed using a RapidFire RF 365 high-throughput sampling robot (Agilent) attached to an iFunnel Agilent 6550 accurate mass Q-TOF mass spectrometer using a C4 cartridge and the same parameters as described above, with the exception of the gas temperature that was reduced to 225 °C. Protein spectra were deconvoluted for the m/z range 850–1350 Da, with a resolution of 2 Da and with a 10–60 kDa cutoff using the MaxEnt1 function in Agilent MassHunter Version 7. The deconvoluted files were extracted as csv files, sorted using Enthought Canopy GUI, and normalized and plotted using GraphPad Prism 9.

[2] = target: T1, SARS-CoV-2 M^pro; test: biochemical; assay type: biochemical; conditions: for M^pro inhibition, result in words: SPE-MS inhibition assay
[3] = target: T1, SARS-CoV-2 M^pro; test: SPE-MS M^pro inhibition assay, 11mer peptide substrate; assay type: biochemical; conditions: Table 1; compounds 15, 16: 11mer peptide as substrate; M^pro […], substrate 2.0 μM; read-out: IC50
[4] = Table 1, M^pro […], 37mer substrate 2.0 μM, 15 min preincubation, mean ± SD, n ≥ 2, read-out: IC50
[5] = read-out: IC50 [μM] using SPE-MS (37mer peptide)
[6] = Table S2, M^pro 0.15 μM, 37mer substrate peptide 2.0 μM, mean ± SD, n ≥ 2, read-out: IC50 [μM] using SPE-MS (37mer peptide)
[7] = Table 2, M^pro […], 37mer substrate 2.0 μM, mean ± SD, n ≥ 2, read-out: IC50
[8] = Table 3, M^pro […], 37mer substrate 2.0 μM, mean ± SD, n ≥ 2, read-out: IC50
[9] = Table 4, M^pro 0.15 μM, 37mer substrate 2.0 μM, mean ± SD, n ≥ 2, read-out: IC50

With `O=c1[nH]sc2ccccc12` [BIT, benzoisothiazolinone, reference compound] the “covalent modification of M^pro by protein-observed MS” value (shortened to “covalent modification of M^pro”) [1] was “non-selectively undergoes covalent”.

With `CC1(C)S[C@@H]2[C@H](NC(=O)COc3ccccc3)C(=O)N2[C@H]1C(=O)O` [Compound 12, penicillin V, reference compound] the IC50 [2, 4] was over 50 µM.

In the case of `CC1(C)S[C@@H]2[C@H](NC(=O)COc3ccccc3)C(=O)N2[C@H]1C(=O)OCc1ccccc1` [Compound 13], the IC50 [2, 4] is reported as over 50 µM.

`CC1(C)[C@H](C(=O)OCc2ccccc2)N2C(=O)[C@H](NC(=O)COc3ccccc3)[C@H]2[S@@+]1[O-]` [Compound 15, (6S)-penicillin V (S)-sulfoxide benzyl ester] was tested, and the IC50 [3] was over 50 µM.

In the case of `CC1(C)[C@H](C(=O)OCc2ccccc2)N2C(=O)[C@@H](NC(=O)COc3ccccc3)C[C@H]2S1(=O)=O` [Compound 17], the “covalent modification of M^pro” value [1] is reported as “appears to inhibit M^pro via a different mechanism”.

For `CC1(C)S[C@@H]2[C@H](NC(=O)COc3ccccc3)C(=O)N2[C@H]1C(=O)OCc1ccccc1F` [Compound 19a], the IC50 [2, 5] was 47.7 ± 6.8 µM.

Compound `CC1(C)S[C@@H]2[C@H](NC(=O)COc3ccccc3)C(=O)N2[C@H]1C(=O)OCc1ccc(F)cc1` [Compound 19c] has an IC50 [2, 5] of over 50 µM.

Compound `CC1(C)S[C@@H]2[C@H](NC(=O)COc3ccccc3)C(=O)N2[C@H]1C(=O)OCc1cc(F)cc(F)c1` [Compound 19d] has an IC50 [2, 6] of over 50 µM.

For `CC1(C)S[C@@H]2[C@H](NC(=O)COc3ccccc3)C(=O)N2[C@H]1C(=O)OCc1ccc(F)cc1F` [Compound 19e], the IC50 [2, 6] was over 50 µM.

`CC1(C)S[C@@H]2[C@H](NC(=O)COc3ccccc3)C(=O)N2[C@H]1C(=O)OCc1c(F)cc(F)cc1F` [Compound 19g] gave an IC50 [2, 6] of over 50 µM.

For `COc1ccc(COC(=O)[C@@H]2N3C(=O)[C@@H](NC(=O)COc4ccccc4)[C@H]3SC2(C)C)cc1` [Compound 19k], the IC50 [2, 6] was 45.8 ± 11 µM.

For `CC1(C)[C@H](C(=O)OCc2ccccc2F)N2C(=O)[C@@H](NC(=O)COc3ccccc3)[C@H]2S1(=O)=O` [Compound 20a], the IC50 [2, 7] was 5.8 ± 2 µM and the “covalent modification of M^pro” value [1] was “covalent reaction with Cys145”.

Work on `CC1(C)[C@H](C(=O)OCc2cccc(F)c2)N2C(=O)[C@@H](NC(=O)COc3ccccc3)[C@H]2S1(=O)=O` [Compound 20b] yielded an IC50 [2, 7] of 9.2 ± 3.7 µM.

For `CC1(C)[C@H](C(=O)OCc2ccc(F)cc2)N2C(=O)[C@@H](NC(=O)COc3ccccc3)[C@H]2S1(=O)=O` [Compound 20c], the IC50 [2, 7] was 7.4 ± 2.3 µM and the “covalent modification of M^pro” value [1] was “covalent reaction with Cys145”.

`CC1(C)[C@H](C(=O)OCc2cc(F)c(F)c(F)c2)N2C(=O)[C@@H](NC(=O)COc3ccccc3)[C@H]2S1(=O)=O` [Compound 20f] showed an IC50 [2, 7] of over 50 µM.

In the case of `CC1(C)[C@H](C(=O)OCc2cc(C(F)(F)F)cc(C(F)(F)F)c2)N2C(=O)[C@@H](NC(=O)COc3ccccc3)[C@H]2S1(=O)=O` [Compound 20h], the “M^pro inhibition, result in words” value [2] is reported as “inhibited M^pro” and the IC50 [2, 7] is reported as 35.3 ± 2.2 µM.

`CC1(C)[C@H](C(=O)OCc2cccc([N+](=O)[O-])c2)N2C(=O)[C@@H](NC(=O)COc3ccccc3)[C@H]2S1(=O)=O` [Compound 20i] was tested, and the “M^pro inhibition, result in words” value [2] was “inhibited M^pro” and the IC50 [2, 7] was 13.3 ± 5.3 µM.

For `CC1(C)[C@H](C(=O)OCc2ccc([N+](=O)[O-])cc2)N2C(=O)[C@@H](NC(=O)COc3ccccc3)[C@H]2S1(=O)=O` [Compound 20j, penicillin V sulfone para-nitrobenzyl ester], the “M^pro inhibition, result in words” value [2] was “do not, at least efficiently, inhibit M^pro” and the IC50 [2, 7] was over 50 µM.

With `COc1ccc(COC(=O)[C@@H]2N3C(=O)[C@@H](NC(=O)COc4ccccc4)[C@H]3S(=O)(=O)C2(C)C)cc1` [Compound 20k] the “M^pro inhibition, result in words” value [2] was “do not, at least efficiently, inhibit M^pro” and the IC50 [2, 7] was 31.1 ± 13.9 µM.

With `CC1(C)[C@H](C(=O)OCc2ccc3ccccc3c2)N2C(=O)[C@@H](NC(=O)COc3ccccc3)[C@H]2S1(=O)=O` [Compound 20l] the “M^pro inhibition, result in words” value [2] was “do not, at least efficiently, inhibit M^pro” and the IC50 [2, 7] was over 50 µM.

In the case of `CC1(C)[C@H](C(=O)OCc2ccc(C(F)(F)F)o2)N2C(=O)[C@@H](NC(=O)COc3ccccc3)[C@H]2S1(=O)=O` [Compound 20m], the “M^pro inhibition, result in words” value [2] is reported as “inhibit M^pro, albeit with slightly reduced potency compared to 10” and the IC50 [2, 7] is reported as 10.2 ± 2.2 µM.

`Cc1cc(COC(=O)[C@@H]2N3C(=O)[C@@H](NC(=O)COc4ccccc4)[C@H]3S(=O)(=O)C2(C)C)no1` [Compound 20n] was tested, and the “M^pro inhibition, result in words” value [2] was “inhibit M^pro, albeit with slightly reduced potency compared to 10” and the IC50 ([2]; Table 2, M^pro 0.15 μM, 37mer substrate 2.0 μM, mean ± SD, n ≥ 2, read-out: IC50) was 9 ± 1.3 µM.

In the case of `COC(=O)[C@@H]1N2C(=O)[C@@H](NC(=O)COc3ccccc3)[C@H]2S(=O)(=O)C1(C)C` [Compound 20o], the IC50 [2, 7] is reported as 7.9 ± 1.4 µM.

In the case of `CCOC(=O)[C@@H]1N2C(=O)[C@@H](NC(=O)COc3ccccc3)[C@H]2S(=O)(=O)C1(C)C` [Compound 20p], the IC50 [2, 7] is reported as 5.2 ± 0.6 µM and the “covalent modification of M^pro” value [1] is reported as “covalent reaction with Cys145”.

Work on `CC1(C)[C@H](C(=O)OCC#N)N2C(=O)[C@@H](NC(=O)COc3ccccc3)[C@H]2S1(=O)=O` [Compound 20r] yielded an IC50 [2, 7] of 9.7 ± 3.3 µM.

For `CC1(C)[C@H](C(=O)OCc2ccccc2)N2C(=O)[C@@H](NC(=O)OCc3ccccc3)[C@H]2S1(=O)=O` [Compound 25a], the “M^pro inhibition, result in words” value [2] was “abolished M^pro inhibition”, the IC50 [2, 8] was over 50 µM and the “covalent modification of M^pro” value [1] was “do not covalently react with Cys145; also recorded: does not modify M^pro covalently; also recorded: but not 25a”.

`CC1(C)[C@H](C(=O)OCc2ccccc2)N2C(=O)[C@@H](NC(=O)CCc3ccccc3)[C@H]2S1(=O)=O` [Compound 25b] was tested, and the IC50 [2, 8] was 45.7 ± 0.9 µM and the “covalent modification of M^pro” value [1] was “do not covalently react with Cys145”.

`CC1(C)[C@H](C(=O)OCc2ccccc2)N2C(=O)[C@@H](NC(=O)CNC(=O)c3ccccc3)[C@H]2S1(=O)=O` [Compound 25d] showed an IC50 [2, 8] of over 50 µM.

With `CC1(C)[C@H](C(=O)OCc2ccccc2)N2C(=O)[C@@H](NC(=O)CNC(=O)OCc3ccccc3)[C@H]2S1(=O)=O` [Compound 25e] the IC50 [2, 8] was over 50 µM.

With `CC(C)C[C@H](NC(=O)OCc1ccccc1)C(=O)N[C@@H]1C(=O)N2[C@@H](C(=O)OCc3ccccc3)C(C)(C)S(=O)(=O)[C@H]12` [Compound 25f] the IC50 [2, 8] was over 50 µM.

In the case of `CC1(C)[C@H](C(=O)OCc2ccccc2)N2C(=O)[C@@H](NC(=O)COc3c(F)c(F)c(F)c(F)c3F)[C@H]2S1(=O)=O` [Compound 25h], the “M^pro inhibition, result in words” value [2] is reported as “did not alter M^pro inhibition substantially” and the IC50 [2, 8] is reported as 5.3 ± 3.3 µM.

`CC(Oc1ccccc1)C(=O)N[C@@H]1C(=O)N2[C@@H](C(=O)OCc3ccccc3)C(C)(C)S(=O)(=O)[C@H]12` (some centres unmarked) [Compound 25i] was tested, and the “M^pro inhibition, result in words” value [2] was “substantially reduced inhibition” and the IC50 [2, 8] was over 50 µM.

With `CC(Oc1ccccc1)C(=O)N[C@@H]1C(=O)N2[C@@H](C(=O)OCc3ccc(F)cc3)C(C)(C)S(=O)(=O)[C@H]12` (some centres unmarked) [Compound 25j] the “M^pro inhibition, result in words” value [2] was “substantially reduced inhibition” and the IC50 [2, 8] was over 50 µM.

`CC1(C)[C@H](C(=O)OCc2ccccc2)N2C(=O)[C@@H](NC(=O)COC3CCCCC3)[C@H]2S1(=O)=O` [Compound 25m] was tested, and the “covalent modification of M^pro” value [1] was “covalent reaction with Cys145”.

With `CC1(C)[C@H](C(=O)OCc2ccccc2)N2C(=O)C(Br)(Br)[C@H]2S1(=O)=O` [Compound 28, 6,6-dibromopenicillanic acid sulfone benzyl ester] the IC50 [2, 9] was about 0.6 µM and the “covalent modification of M^pro” value [1] was “initial covalent M^pro binding is followed by rapid subsequent reaction to give new species”.

In the case of `CC1(C)[C@H](C(=O)OCc2ccc([N+](=O)[O-])cc2)N2C(=O)C(Br)(Br)[C@H]2S1(=O)=O` [Compound 31, 6,6-dibromopenicillanic acid sulfone para-nitrobenzyl ester], the “covalent modification of M^pro” value [1] is reported as “initial covalent M^pro binding is followed by rapid subsequent reaction to give new species”.

With `CC1(C)[C@H](C(=O)OCc2ccc([N+](=O)[O-])cc2)N2C(=O)C(Br)(Br)[C@H]2[S+]1[O-]` (stereo partly drawn) [Compound 32, 6,6-dibromopenicillaic acid (R)-sulfoxide para-nitrobenzyl ester] the IC50 [2, 9] was about 0.6 µM and the “covalent modification of M^pro” value [1] was “initial covalent M^pro binding is followed by rapid subsequent reaction to give new species”.

`CC1(C)[C@H](C(=O)OCc2ccccc2)N2C(=O)C[C@H]2S1(=O)=O` [Compound 34] was tested, and the IC50 ([2]; Table 4, M^pro […], 37mer substrate 2.0 μM, mean ± SD, n ≥ 2, read-out: IC50) was over 50 µM.
